The results in this text go back to patent US20150094474A1, “AGRICULTURAL CHEMICALS” (Redx Pharma Ltd., priority 2012, published 2015).

Holding throughout (format): in vivo
Conditions in all cases: 20% concentration

Test [1] deals with houseflies, Musca domestica. The test can be described thus: Insect repellent bioassay, houseflies (treated tile arena). As to the method: (§1) A laboratory bioassay was conducted to screen 5 compounds (Icaridin (38); and 4 icaridin analogues: 39, 40a, 42a and 41) for repellent activity against houseflies, Musca domestica, black ants, Lasius niger, German cockroaches, Blattella germanica, and bedbugs, Cimex lectularius. Compounds were diluted in a mixture of ethanol and water and assessed at a 20% concentration. A mixture of ethanol/water only negative control was also included for comparative purposes. These were applied onto an aluminium foil tile, which was placed into one half of an arena. The other half of the arena contained an untreated aluminium foil tile. The number of insects present in the treated and untreated area was assessed every 5 minutes for a total of 20 minutes.
(§2) Houseflies, Musca domestica, and German cockroaches, Blattella germanica, were obtained from a laboratory culture maintained at i2LResearch. Mixed sex and age adult insects (flies were aged 3-6 days old) were used in the experiments.
(§3) Temperature was maintained between 24.2 and 24.6° C. and relative humidity ranged between 27.5% and 43.5%, throughout the experimental period.
(§4) The tested compounds were diluted in ethanol and water to a concentration of 20% (w/w: compound 20%, ethanol 40%, water 40%). The concentrates were prepared at room temperature and stirred for approximately 15 minutes using a vortex mixer. A negative control (mixture of ethanol:water 50:50) was also included in the testing for comparative purposes. Treatments were applied directly on to a non porous surface (aluminium foil), using a Gilson pipette at a rate of 0.225 ml per 225 cm^2 surface tile. A small piece of acetate was used to evenly spread the treatments across the entire surface of the tile.
For the testing against houseflies: A clear plastic container was used measuring approximately 34 cm long×21 cm wide×20 cm high, with a piece of netting and lid on top. This was divided into two halves using an additional tile with a small slit measuring approximately 2.5 cm×5 cm cut at a height of […] from the base, so that the insects could freely travel between halves. A treated and untreated tile was placed either side of the dividing panel. Twenty flies were placed in the half with the treated surface. Sugar and water was placed in both halves. The number of insects crossing from the treated area into the untreated area was assessed at 5 minute intervals for a total of 20 minutes.
(§5) Three to six replicates were performed for each treatment, for each species.

In test [2] the test system is German cockroaches, Blattella germanica. The test can be described thus: Insect repellent bioassay, German cockroaches (treated tile arena). As to the method:
as §1, §2, §3, §4
(§6) For the testing against ants, cockroaches and bedbugs: A clear plastic container was used measuring approximately 34 cm long×21 cm wide×20 cm high. This was divided into two halves. The treated aluminium foil was placed in one half and the other half contained untreated foil. Food (sugar cube for black ants and bran pellet for cockroaches) and water (damp cotton wool) were placed in each half where appropriate. Twenty ants/cockroaches and ten bedbugs were placed in the centre of the arena. The number of insects in each half was assessed at 5 minute intervals for a total of 20 minutes.
as §5

For a further test, the system named is black ants, Lasius niger. The test can be described thus: Insect repellent bioassay, black ants (treated tile arena). The protocol: as §1
Black ants, Lasius niger, were field collected from the Cardiff area. Mixed age worker ants were used in the experiments.
as §3, §4, §6, §5

Test [3] concerns bedbugs, Cimex lectularius. Description: Insect repellent bioassay, bedbugs (treated tile arena). The protocol: as §1
Bedbugs, Cimex lectularius, were obtained from a laboratory culture maintained at CimexStore (Chepstow, UK). Mixed age and sex adult bedbugs were used in the experiments (see deviation below).
as §3, §4, §6, §5

With `CCC(C)OC(=O)N1CCCCC1CC=O` (stereo not drawn) [Compound 39, sec-Butyl 2-(2-oxoethyl)piperidine-1-carboxylate], the “insects moving towards the treated tile” value in test [1] (TIME 5 mins) is “B (between 11% and 25% were on the treated tile)”; in test [1] (TIME 10 mins), “C (greater than 25% were on the treated tile)”; in test [1] (TIME 15 mins) it was “C (greater than 25% were on the treated tile)”; in test [1] (TIME 20 mins), “C (greater than 25% were on the treated tile)”. Besides, the “insects on the treated tile” value was “B (between 11% and 25% were on the treated tile)” in test [2] (TIME 5 mins); “B (between 11% and 25% were on the treated tile)” in test [2] (TIME 10 mins); “B (between 11% and 25% were on the treated tile)” in test [2] (TIME 15 mins); “B (between 11% and 25% were on the treated tile)” in test [2] (TIME 20 mins); “B (between 11% and 25% were on the treated tile)” in the test with black ants, Lasius niger (TIME 5 mins); “B (between 11% and 25% were on the treated tile)” with black ants, Lasius niger (TIME 10 mins). Moreover, the “insects on the treated tile” value was “B (between 11% and 25% were on the treated tile)” in the test on black ants, Lasius niger (TIME 15 mins); “B (between 11% and 25% were on the treated tile)” with black ants, Lasius niger (TIME 20 mins); “A (10% or less of the insects were on the treated tile)” in test [3] (TIME 5 mins); “A (10% or less of the insects were on the treated tile)” in test [3] (TIME 20 mins).

In the case of `CCC(C)OC(=O)N1CCCCC1CC(=O)O` (stereo not drawn) [Compound 41, 2-(1-sec-Butoxycarbonyl-2-piperidyl)acetic acid], the “insects moving towards the treated tile” value in test [1] (TIME 5 mins) is “A (10% or less of the insects were on the treated tile)”; in test [1] (TIME 10 mins), “A (10% or less of the insects were on the treated tile)”; in test [1] (TIME 15 mins) it was “B (between 11% and 25% were on the treated tile)”; in test [1] (TIME 20 mins) it was “B (between 11% and 25% were on the treated tile)”. For the same compound, the “insects on the treated tile” value is “B (between 11% and 25% were on the treated tile)” in test [2] (TIME 5 mins); “B (between 11% and 25% were on the treated tile)” in test [2] (TIME 10 mins); “B (between 11% and 25% were on the treated tile)” in test [2] (TIME 15 mins); “B (between 11% and 25% were on the treated tile)” in test [2] (TIME 20 mins); “C (greater than 25% were on the treated tile)” in the test on black ants, Lasius niger (TIME 5 mins); “C (greater than 25% were on the treated tile)” in the test on black ants, Lasius niger (TIME 10 mins). The “insects on the treated tile” value was “C (greater than 25% were on the treated tile)” in the test on black ants, Lasius niger (TIME 15 mins); “C (greater than 25% were on the treated tile)” with black ants, Lasius niger (TIME 20 mins); “A (10% or less of the insects were on the treated tile)” in test [3] (TIME 5 mins); “B (between 11% and 25% were on the treated tile)” in test [3] (TIME 10 mins); “B (between 11% and 25% were on the treated tile)” in test [3] (TIME 15 mins); “B (between 11% and 25% were on the treated tile)” in test [3] (TIME 20 mins).

As to `CCC(C)OC(=O)N1CCCCC1C/C=N/O` (stereo not drawn) [Compound 40a], the “insects moving towards the treated tile” value in test [1] (TIME 5 mins) was “B (between 11% and 25% were on the treated tile)”; in test [1] (TIME 10 mins), “B (between 11% and 25% were on the treated tile)”; in test [1] (TIME 15 mins) it was “B (between 11% and 25% were on the treated tile)”; in test [1] (TIME 20 mins), “B (between 11% and 25% were on the treated tile)”. For the same compound, the “insects on the treated tile” value in test [2] (TIME 5 mins) is “C (greater than 25% were on the treated tile)”; in test [2] (TIME 10 mins), “B (between 11% and 25% were on the treated tile)”; in test [2] (TIME 15 mins), “B (between 11% and 25% were on the treated tile)”; in test [2] (TIME 20 mins) it was “B (between 11% and 25% were on the treated tile)”; in the test on black ants, Lasius niger (TIME 5 mins), “C (greater than 25% were on the treated tile)”; with black ants, Lasius niger (TIME 10 mins) it was “C (greater than 25% were on the treated tile)”. Also, the “insects on the treated tile” value in the test with black ants, Lasius niger (TIME 15 mins) is on record as “C (greater than 25% were on the treated tile)”; in the test on black ants, Lasius niger (TIME 20 mins), “C (greater than 25% were on the treated tile)”; in test [3] (TIME 10 mins), “A (10% or less of the insects were on the treated tile)”.

For `CCC(C)OC(=O)N1CCCCC1CCO` (stereo not drawn) [Icaridin (38), Icaridin, reference compound], the “insects moving towards the treated tile” value in test [1] (TIME 5 mins) was “B (between 11% and 25% were on the treated tile)”; in test [1] (TIME 10 mins), “C (greater than 25% were on the treated tile)”; in test [1] (TIME 15 mins), “C (greater than 25% were on the treated tile)”; in test [1] (TIME 20 mins), “C (greater than 25% were on the treated tile)”. The “insects on the treated tile” value in test [2] (TIME 5 mins) was “B (between 11% and 25% were on the treated tile)”; in test [2] (TIME 10 mins) it was “B (between 11% and 25% were on the treated tile)”; in test [2] (TIME 15 mins), “A (10% or less of the insects were on the treated tile)”; in test [2] (TIME 20 mins) it was “A (10% or less of the insects were on the treated tile)”; in the test with black ants, Lasius niger (TIME 5 mins) it was “B (between 11% and 25% were on the treated tile)”; in the test on black ants, Lasius niger (TIME 10 mins) it was “B (between 11% and 25% were on the treated tile)”. Also, the “insects on the treated tile” value in the test on black ants, Lasius niger (TIME 15 mins) was “B (between 11% and 25% were on the treated tile)”; in the test on black ants, Lasius niger (TIME 20 mins) it was “A (10% or less of the insects were on the treated tile)”; in test [3] (TIME 5 mins), “A (10% or less of the insects were on the treated tile)”; in test [3] (TIME 10 mins), “A (10% or less of the insects were on the treated tile)”; in test [3] (TIME 15 mins) it was “A (10% or less of the insects were on the treated tile)”; in test [3] (TIME 20 mins), “A (10% or less of the insects were on the treated tile)”.

`CCC(C)OC(=O)N1CCCCC1CC(=O)OC` (stereo not drawn) [Compound 42a, sec-Butyl 2-(2-methoxy-2-oxo-ethyl)piperidine-1-carboxylate]: the “insects moving towards the treated tile” value in test [1] (TIME 5 mins) is “A (10% or less of the insects were on the treated tile)”; in test [1] (TIME 10 mins), “A (10% or less of the insects were on the treated tile)”; in test [1] (TIME 15 mins) it was “B (between 11% and 25% were on the treated tile)”; in test [1] (TIME 20 mins), “B (between 11% and 25% were on the treated tile)”. The “insects on the treated tile” value was “B (between 11% and 25% were on the treated tile)” in test [2] (TIME 5 mins); “B (between 11% and 25% were on the treated tile)” in test [2] (TIME 10 mins); “B (between 11% and 25% were on the treated tile)” in test [2] (TIME 15 mins); “B (between 11% and 25% were on the treated tile)” in test [2] (TIME 20 mins); “B (between 11% and 25% were on the treated tile)” in the test on black ants, Lasius niger (TIME 5 mins); “B (between 11% and 25% were on the treated tile)” in the test on black ants, Lasius niger (TIME 10 mins). For the same compound, the “insects on the treated tile” value is “B (between 11% and 25% were on the treated tile)” in the test on black ants, Lasius niger (TIME 15 mins); “A (10% or less of the insects were on the treated tile)” with black ants, Lasius niger (TIME 20 mins); “A (10% or less of the insects were on the treated tile)” in test [3] (TIME 5 mins); “A (10% or less of the insects were on the treated tile)” in test [3] (TIME 10 mins); “A (10% or less of the insects were on the treated tile)” in test [3] (TIME 15 mins); “A (10% or less of the insects were on the treated tile)” in test [3] (TIME 20 mins).
